Data: patent publication US20100137397A1, “Chemical Compounds” (ASTRAZENECA AB, priority 2005, published 2010)

Tests used:
[1] = conscious dogs; cited from earlier work
hepatocytes = details: cited from earlier work
[2] = db/db and ob/ob mice; cited from earlier work
[3] = biological target: T1, Human recombinant liver glycogen phosphorylase a (hrl GPa) (Homo sapiens, UniProt P06737); assay: glycogen phosphorylase a multienzyme coupled assay; format: biochemical; details: hrl GPa 20 nM, 8 mM glucose, pH7.2, 6 hours at 30° C.
T1 sequence (P06737 1-847): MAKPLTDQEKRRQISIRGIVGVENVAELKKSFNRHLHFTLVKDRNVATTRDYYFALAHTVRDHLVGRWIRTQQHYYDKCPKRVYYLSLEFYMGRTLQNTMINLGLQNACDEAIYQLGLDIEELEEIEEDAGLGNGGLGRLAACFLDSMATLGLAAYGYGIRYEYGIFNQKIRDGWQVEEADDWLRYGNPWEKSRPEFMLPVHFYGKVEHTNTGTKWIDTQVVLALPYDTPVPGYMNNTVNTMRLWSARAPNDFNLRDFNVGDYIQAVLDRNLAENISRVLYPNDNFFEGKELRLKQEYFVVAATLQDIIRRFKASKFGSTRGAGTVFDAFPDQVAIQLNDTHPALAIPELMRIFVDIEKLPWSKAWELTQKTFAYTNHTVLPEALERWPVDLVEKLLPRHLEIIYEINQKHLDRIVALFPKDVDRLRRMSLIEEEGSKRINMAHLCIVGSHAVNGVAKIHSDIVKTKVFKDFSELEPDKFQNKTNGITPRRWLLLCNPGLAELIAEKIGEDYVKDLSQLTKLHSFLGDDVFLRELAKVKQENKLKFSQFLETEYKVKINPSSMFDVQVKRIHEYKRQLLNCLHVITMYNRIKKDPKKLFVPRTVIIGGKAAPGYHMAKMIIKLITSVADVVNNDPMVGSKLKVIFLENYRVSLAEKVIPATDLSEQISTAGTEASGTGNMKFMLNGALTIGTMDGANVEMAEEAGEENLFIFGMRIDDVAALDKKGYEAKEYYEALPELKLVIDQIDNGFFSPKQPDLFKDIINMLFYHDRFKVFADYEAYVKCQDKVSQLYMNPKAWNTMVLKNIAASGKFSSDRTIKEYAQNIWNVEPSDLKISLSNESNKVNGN
Method: The activity of the compounds is determined by measuring the inhibitory effect of the compounds on glycogen degradation, the production of glucose-1-phosphate from glycogen is monitored by the multienzyme coupled assay, as described in EP 0 846 464 A2, general method of Pesce et al (Pesce, M A, Bodourian, S H, Harris, R C, and Nicholson, J F (1977) Clinical Chemistry 23, […]). The reactions were in 384well microplate format in a volume of 50 μl. The change in fluorescence due to the conversion of the co-factor NAD to NADH is measured at 340 nm excitation, 465 nm emission in a Tecan Ultra Multifunctional Microplate Reader. The reaction is in 50 mM HEPES, 3.5 mM KH2PO4, 2.5 mM MgCl2, 2.5 mM ethylene glycol-bis(b-aminoethyl ether) N,N,N′,N′-tetraacetic acid, 100 mM KCl, 8 mM D-(+)-glucose pH7.2, containing 0.5 mM dithiothreitol, the assay buffer solution. Human recombinant liver glycogen phosphorylase a (hrl GPa) 20 nM is pre-incubated in assay buffer solution with 6.25 mM NAD, 1.25 mg type III glycogen at 1.25 mg m^−1 the reagent buffer, for 30 minutes. […] The non-inhibited activity of GPa is measured in the presence of 10 μl 5% DMSO in assay buffer solution and maximum inhibition measured in the presence of 5 mgs ml^−1 N-ethylmaleimide. […] Relative Fluoresence Units (RFUs) are measured at 340 nm excitation, 465 nm emission. […]
Activity is calculated as follows:—

Row | Structure (SMILES) | hepatic glucose output and arterial plasma glucose following a glucagon challenge [1] | glucagon stimulated glycogenolysis and glucose output in hepatocytes (hepatocytes) | plasma glucose concentration [2] | IC50 [3]
1 | CCN1C(C)=C(C(=O)OC(C)C)C(c2ccccc2Cl)C2=C1COC2=O (stereo not shown) [Bay R 3401] | reduced significantly | – | – | –
2 | CN(C)C(=O)[C@H](O)[C@H](Cc1ccccc1)NC(=O)c1cc2cc(Cl)ccc2[nH]1 [CP91149] | – | reduce | reduced, in a dose related manner | –
3 | O=C(N[C@@H](Cc1ccc(F)cc1)C(=O)N1CCC(O)CC1)c1cc2cc(Cl)ccc2[nH]1 [CP320626] | – | reduce | reduced, in a dose related manner | –
4 | O=C(O)COC[C@@H]1c2ccccc2C[C@H]1NC(=O)c1cc2cc(Cl)sc2[nH]1 [Example 1, [((1R,2R)-2-{[(2-Chloro-6H-thieno[2,3-b]pyrrol-5-yl)carbonyl}amino]-2,3-dihydro-1H-inden-1-yl)methoxy]acetic acid] | – | – | – | 191 nM
5 | O=C(O)C[C@@H]1c2ccccc2C[C@H]1NC(=O)c1cc2sc(Cl)c(Cl)c2[nH]1 [Example 8, ((1R,2R)-2-{[(2,3-Dichloro-4H-thieno[3,2-b]pyrrol-5-yl)carbonyl]amino}-2,3-dihydro-1H-inden-1-yl)acetic acid] | – | – | – | 14 nM
